Data as given in patent publication US6455530B1, “2R,4S,S,S- and 2S,4R,S,S-hydroxyitraconazole” (Sepracor Inc., priority 1996, dated 2002).

Legend:
[1] = tested on: Candida albicans; test: Kirby-Bauer testing (paper disk zones of inhibition); type: cell-based; settings: 10 μl of 10 mg/mL solution on 7 mm paper disk, Sabouraud Dextrose agar, 30° C. for 16 hours
Procedure: (§1) Actively growing cultures of Candida albicans, Cryptococcus neoformens and Saccharomnyces cerevisiae were prepared as described above. The cultures were diluted to a 0.5 McFarland standard and swabbed onto a 150 mm Sabouraud Dextrose agar plates. Paper disks (7 mm) were placed onto the agar plates using a disk dispenser. Next 10 μl of 10 mg/mL solutions of each sample hydroxy-itraconazole was pipetted onto separate paper disks. The plates were then incubated at 30° C. for 16 hours. Zones of inhibition were then measured in mm. Data Represent Zones of Inhibition in mm.

[2] = tested on: Cryptococcus neoformens; test: as above; type: cell-based; settings: 10 μl of 10 mg/mL solution on 7 mm paper disk, Sabouraud Dextrose agar, 30° C. for 16 hours
Procedure: as §1

[3] = tested on: Saccharomyces cerevisae; test: as above; type: cell-based; settings: 10 μl of 10 mg/mL solution on 7 mm paper disk, Sabouraud Dextrose agar, 30° C. for 16 hours
Procedure: as §1

[4] = oral, daily administration; cited from earlier work

| Compound | zone of inhibition at 10000 µg/mL ([1]; Candida albicans) | zone of inhibition at 10000 µg/mL ([2]; Cryptococcus) | zone of inhibition at 10000 µg/mL ([3]; Saccharomyces) | Time at which peak plasma levels are attained [4] | Zones of Inhibition, Candida albicans [1] | Zones of Inhibition, Cryptococcus neoformens [2] | Zones of Inhibition, Saccharomyces cerevisae [3] |
| --- | --- | --- | --- | --- | --- | --- | --- |
| CCC(C)n1ncn(-c2ccc(N3CCN(c4ccc(OCC5COC(Cn6cncn6)(c6ccc(Cl)cc6Cl)O5)cc4)CC3)cc2)c1=O (racemic) [± Itraconazole, 4-[4-[4-[4-[[2-(2,4-dichlorophenyl)-2-(1H-1,2,4-triazol-1-ylmethyl)-1,3-dioxolan-4-yl]methoxy]phenyl]-1-piperazinyl]phenyl]-2,4dihydro-2-(1-methylpropyl)-3H-1,2,4triazol-3-one, reference compound] | 17 mm | 22 mm | 15 mm | 15 days |  |  |  |
| C[C@H]([C@@H](C)O)n1ncn(-c2ccc(N3CCN(c4ccc(OC[C@H]5CO[C@](Cn6cncn6)(c6ccc(Cl)cc6Cl)O5)cc4)CC3)cc2)c1=O (single isomer, unassigned) [A diastereomer, (2R,4S)-4-[4-[4-[4-[[2-(2,4-Dichlorophenyl)-2-(1H-1,2,4-triazole-1-ylmethyl)-1,3-dioxolan-4-yl]methoxy]phenyl]-[-piperazinyl[phenyl]-2,4dihydro-2-[(1R*,2R*)-(2-hydroxy-1-methylpropyl)]-3H -1,2,4-triazol-3-one] |  |  |  |  | 23 mm | 34 mm | 23 mm |
| C[C@H]([C@@H](C)O)n1ncn(-c2ccc(N3CCN(c4ccc(OC[C@@H]5CO[C@@](Cn6cncn6)(c6ccc(Cl)cc6Cl)O5)cc4)CC3)cc2)c1=O (single isomer, unassigned) [B diastereomer, (2S,4R)-4-[4-[4-[4-[[2-(2,4-Dichlorophenyl)-2-(1H-1,2,4,-triazole-1-ylmethyl)-1,3-dioxolan-4-yl}methoxy]phenyl]-1-piperazinyl]phenyl]-2,4-dihydro-2-[(1R*,2R*)-(2-hydroxy-1-methylpropyl)-3H-1,2,4-triazol-3-one] |  |  |  |  | 27 mm | 32 mm | 25 mm |
